The Deep4Chem optical property database
One block for each compound: values may come before it.

Assay: photoluminescence quantum yield (fraction); solvent given as SMILES

Compound: N#CC1=c2c3cccc4cccc(c43)n2[B-](F)(F)[n+]2ccccc21
- photoluminescence quantum yield (in C1CCOC1): 0.86
- photoluminescence quantum yield (in CC#N): 0.96
- photoluminescence quantum yield (in CCCCCC): 0.75
- photoluminescence quantum yield (in Cc1ccccc1): 0.75
- photoluminescence quantum yield (in ClCCl): 0.88

Compound: Nc1cccc2ccccc12
- photoluminescence quantum yield (in C1CCCCC1): 0.6

Compound: CC(C)(C)c1ccc2c(c1)c1cc(C(C)(C)C)ccc1n2-c1cc(-n2c3ccc(C(C)(C)C)cc3c3cc(C(C)(C)C)ccc32)c(-n2c3ccc(C(C)(C)C)cc3c3cc(C(C)(C)C)ccc32)c(C#N)c1-n1c2ccc(C(C)(C)C)cc2c2cc(C(C)(C)C)ccc21
- photoluminescence quantum yield (in Cc1ccccc1): 0.68

Compound: C(S/C=C/c1ccc(-c2ccc(/C=C/SC=C3CCCCC3)cc2)cc1)=C1CCCCC1
- photoluminescence quantum yield (in ClCCl): 0.238

Compound: c1ccc(-c2nc(-c3ccc(-c4nc(-c5ccccc5)c(-c5ccccc5)[nH]4)s3)[nH]c2-c2ccccc2)cc1
- photoluminescence quantum yield (in CC#N): 0.55

Compound: O=c1c2cccc3cccc(c32)c2nc3c(F)c(F)c(F)c(F)c3n12
- photoluminescence quantum yield (in ClCCl): 0.82

Compound: COc1ccc(-n2c(C)ccc2C)cc1
- photoluminescence quantum yield (in CC#N): 0.026
- photoluminescence quantum yield (in CCCCCC): 0.024

Compound: C#CCOc1ccc(/C=C/C2=[N+]3C(=C(c4ccc(N(C)C)cc4)c4c(C)cc(C)n4[B-]3(F)F)C(C)=C2)cc1
- photoluminescence quantum yield (in CO): 0.66

Compound: FC(F)(F)C(F)(F)C(F)(F)C(F)(F)C(F)(F)C(F)(F)CCOc1nnc(Cl)nn1
- photoluminescence quantum yield (in ClCCl): 0.4
- photoluminescence quantum yield (in OCC(F)(F)F): 0.26

Compound: CCOC(=O)c1ccc(C2=C(c3ccccc3)c3oc4ccccc4[n+]3[B-](F)(F)O2)cc1
- photoluminescence quantum yield (in C1CCOC1): 0.011

Compound: CCOC(=O)/N=c1/oc2c(OC)cccc2cc1C#N
- photoluminescence quantum yield (in ClCCl): 0.0034

Compound: Nc1ccc2c(-c3ccccc3C(=O)[O-])c3ccc(=[NH2+])cc-3oc2c1
- photoluminescence quantum yield (in CC#N): 0.95
- photoluminescence quantum yield (in CCO): 0.88
- photoluminescence quantum yield (in CN(C)C=O): 0.84
- photoluminescence quantum yield (in O): 0.85

Compound: Cn1c(=O)c(/N=N/c2ccc(S(=O)(=O)O)c3ccccc23)c(O)c2ccccc21
- photoluminescence quantum yield (in CS(C)=O): 0.02

Compound: COc1cccc(OC)c1C1=C2C(C)=CC(C)=[N+]2[B-](F)(F)n2c(C)cc(C)c21
- photoluminescence quantum yield (in C1CCOC1): 0.64
- photoluminescence quantum yield (in CC#N): 0.54
- photoluminescence quantum yield (in CC(=O)C(C)(C)C): 0.64
- photoluminescence quantum yield (in CC(C)=O): 0.72
- photoluminescence quantum yield (in CCCCCC): 0.71
- photoluminescence quantum yield (in CCOC(C)=O): 0.47
- photoluminescence quantum yield (in CO): 0.58

Compound: O=c1[nH]c2[n+](c3ccccc13)[B-](F)(F)Oc1ccccc1-2
- photoluminescence quantum yield (in CC#N): 0.201
- photoluminescence quantum yield (in Cc1ccccc1): 0.24

Compound: O=S(=O)(c1ccc(-c2ccc3c(c2)c2ccccc2n3-c2ccccc2)cc1)c1ccc(-c2ccc3c(c2)c2ccccc2n3-c2ccccc2)cc1
- photoluminescence quantum yield (in Cc1ccccc1): 1

Compound: Cc1ccc(N(c2ccc(C)cc2)c2ccc(-c3ccc(C=C(C#N)C#N)s3)cc2)cc1
- photoluminescence quantum yield (in ClC(Cl)Cl): 0.07

Compound: CN(C)c1ccc(/C=C/c2cc(/C=C/c3ccc(N(C)C)cc3)nc(N)n2)cc1
- photoluminescence quantum yield (in Cc1ccccc1): 0.65
- photoluminescence quantum yield (in ClC(Cl)Cl): 0.55

Compound: CC1(C)c2ccccc2N(c2cc3c4ccccc4n4c5ccccc5c(c2)c34)c2ccccc21
- photoluminescence quantum yield (in O=P(c1ccccc1)(c1ccccc1)c1ccccc1Oc1ccccc1P(=O)(c1ccccc1)c1ccccc1): 0.95

Compound: CCC1=C(C2=C(C3=C(CC)S(=O)(=O)c4ccccc43)C(F)(F)C(F)(F)C2(F)F)c2ccccc2S1(=O)=O
- photoluminescence quantum yield (in C1COCCO1): 0

Compound: CCOc1ccc2c(-c3nc(-c4cccc(C)c4)no3)cc(=O)oc2c1
- photoluminescence quantum yield (in CCO): 0.68
- photoluminescence quantum yield (in ClC(Cl)Cl): 0.23

Compound: COC(=O)c1ccc(NC(=O)c2ccc(N(C)C)cc2)cc1
- photoluminescence quantum yield (in C1CCCCC1): 0.0148
- photoluminescence quantum yield (in C1CCOC1): 0.198
- photoluminescence quantum yield (in CC#N): 0.0209
- photoluminescence quantum yield (in CCOCC): 0.0512

Further lines, results first:

- photoluminescence quantum yield (in CC#N): 0.76
- photoluminescence quantum yield (in CCCCCC): 0.82
- photoluminescence quantum yield (in CCOC(C)=O): 0.67
- photoluminescence quantum yield (in CO): 0.72
- photoluminescence quantum yield (in ClCCl): 0.8
Compound: F[B-]1(F)n2c(Cl)ccc2C(c2c(Cl)cccc2Cl)=C2C=CC(NCc3ccccc3)=[N+]21

- photoluminescence quantum yield (in C1CCCCC1): 0.9
Compound: CCC(C)(C)c1ccc2c(c1)C(CCOC)(CCOC)c1cc(-c3ccc(-c4ccc5c(c4)C(CCOC)(CCOC)c4cc(C(C)(C)CC)ccc4-5)cc3)ccc1-2

- photoluminescence quantum yield (in CO): 0.09
- photoluminescence quantum yield (in ClC(Cl)Cl): 0.12
Compound: Cc1cc(=O)oc2cc3c4ccccc4c4ccccc4c3cc12

- photoluminescence quantum yield (in CC#N): 0.29
- photoluminescence quantum yield (in ClCCl): 0.33
Compound: COC(=O)c1cccc2c1C#Cc1c(NC(C)=O)cccc1OCCCO2

- photoluminescence quantum yield (in ClCCl): 0.5
Compound: CCCCN(CCCC)c1ccc(C#Cc2cc(C#Cc3ccc(C(F)(F)F)cc3)c(C#Cc3ccc(N(CCCC)CCCC)cc3)cc2C#Cc2ccc(C(F)(F)F)cc2)cc1

- photoluminescence quantum yield (in ClCCl): 0.04
Compound: CCN(CC)c1ccc2c(-c3ccccc3C(=O)O)c3c([o+]c2c1)/C(=C/c1ccc(N(C)C)cc1)CCC3

- photoluminescence quantum yield (in CS(C)=O): 0.65
Compound: Cn1c2ccccc2c(=O)c2ccccc21

- photoluminescence quantum yield (in ClCCl): 0.78
Compound: CCCCn1c(-c2ccc(-c3nnc(-c4ccc(-c5nc6c7ccccc7c7ccccc7c6n5CCCC)cc4)o3)cc2)nc2c3ccccc3c3ccccc3c21

- photoluminescence quantum yield (in C1CCCCC1): 0.11
Compound: COc1ccc(C2=C(c3ccc(OC)cc3)C(C)(C)c3c2ccc2ccccc32)cc1

- photoluminescence quantum yield (in ClCCl): 0.36
Compound: Cc1cccc(C)c1N1C(c2ccccc2)=Cc2cccc[n+]2[B-]1(F)F

- photoluminescence quantum yield (in ClC(Cl)Cl): 0
Compound: CCCCCCN1C(=O)c2cccc3c(-c4ccc([N+](=O)[O-])s4)ccc(c23)C1=O

- photoluminescence quantum yield (in CS(C)=O): 0.27
- photoluminescence quantum yield (in ClCCl): 0.84
Compound: CCNc1cc2oc(=O)c3c(=O)oc4ccccc4c3c2cc1C

- photoluminescence quantum yield (in ClC(Cl)Cl): 0.435
Compound: Cc1c2c(nc3ccccc13)-c1cc3c(cc1CC2)-c1nc2ccccc2c(C)c1CC3
